Measurements: PubChem BioAssay AID1959 (Broad Institute, 2009)
Active and inactive are the calls of the source.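 Rule for the calls: active = growth-inhibition EC50 no more than tenfold above the top tested dose; inconclusive = flat fit between 30% and 70% inhibition, or unreliable fit; inactive = EC50 more than tenfold above the top tested dose.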

What follows are compounds tested on E. coli NEB5alpha growth, BacTiter-Glo luminescence, 4 h (assay: Escherichia coli growth inhibition, dose response, counter-screen for MEX-5/POS-1 RNA-binding inhibitor project, luminescence, NEB5alpha (AID 1959);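 note: pUC19-transformed ampicillin-resistant cells grown in LB with ampicillin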).

| Compound | EC50 |
| --- | --- |
| COc1cc(C(c2c(C(=O)O)[nH]c3ccccc23)c2c(C(=O)O)[nH]c3ccccc23)ccc1OCc1ccccc1 | > 11 µM (inactive) |
| COc1ccc2c(c1)c1nc3ccccc3nc1n2Cc1ccc(OC)c(OC)c1 | > 11 µM (inactive) |
| COC(=O)Cn1cc(/C=C2\C(=O)NC(=O)N(c3ccc(OC)cc3)C2=O)c2ccccc21 | > 11 µM (inactive) |
| CCN(CC)C(=O)Cn1cc(C(=O)C(=O)N2CCc3ccccc32)c2ccccc21 | > 11 µM (inactive) |
| Cn1nc(-c2ccc(Cl)cc2)nc2c(=O)n(C)c(=O)nc1-2 | > 11 µM (inactive) |
| O=C/C(=C\Nc1ccccn1)c1nc2cc(Cl)ccc2o1 | > 11 µM (inactive) |
| CC1(OC(=O)c2cnc3ccccc3n2)C(=O)C=C2C=C(c3ccc(C#N)cc3)OC=C2C1=O (configuration not stated) | > 11 µM (inactive) |
| Cc1ccc2nc(-c3ccc(O)c(O)c3)cn2c1 | > 11 µM (inactive) |
| O=C(Nc1nccs1)c1ccc(-c2ccc([N+](=O)[O-])cc2)o1 | > 11 µM (inactive) |
| Cc1ccc(NC(=O)c2sc3nc4c(c(-c5ccco5)c3c2N)CCC4)cc1 | > 11 µM (inactive) |
| COC(=O)c1cccc(-n2c(C)cc(C=O)c2C)c1C | > 11 µM (inactive) |
| O=C1NC(=O)C(=Cc2cn(CCOc3ccc4c(c3)OCO4)c3ccccc23)C(=O)N1 | > 11 µM (inactive) |
| Oc1ccc(C2C[C@H]3CC[C@@H]2C3)cc1O (some centres not stated) | > 11 µM (inactive) |
| CCO/C(C)=N/n1c2nc3ccccc3nc2c2c(=O)n(C3CCCC3)c(C)nc21 | > 11 µM (inactive) |
| Cc1ccc(S(=O)(=O)NNC(=S)NC(=O)c2ccc([N+](=O)[O-])cc2)cc1 | > 11 µM (inactive) |
| C=CCn1ccc(=NC=C(C#N)C#N)c2ccccc21 | > 11 µM (inactive) |
| Cc1ccc(S(=O)(=O)Nc2ccccc2F)cc1C(=O)NNC(=O)c1csc(N2CCOCC2)n1 | > 11 µM (inactive) |
| CN(C)CCN(C)Cc1c2ccccc2c(CN(C)CCN(C)C)c2ccccc12 | > 11 µM (inactive) |
| Cc1ccc(NC(=O)CN2C(=O)N/C(=C\c3cccn3-c3cccc(C(=O)O)c3)C2=O)cc1 | > 11 µM (inactive) |
| O=S(=O)(Nc1cc(Sc2cccc3cccnc23)c(O)c2ccccc12)c1ccc(F)cc1 | > 11 µM (inactive) |
| CC1=C(C#N)C(=O)NC(=O)/C1=C\c1ccc(-c2ccc(C)cc2[N+](=O)[O-])o1 | > 11 µM (inactive) |
| CC1=CC(C)(C)N2C(=O)C3(C(C#N)=C(N)OC4=C3C(=O)CC(C)(C)C4)c3cc(C)cc1c32 (configuration not stated) | > 11 µM (inactive) |
| Cc1cccc(Oc2nc(-c3ccccn3)nc3ccccc23)c1 | > 11 µM (inactive) |

| Compound | EC50 |
| --- | --- |
| CCn1cc(C=C2C(=O)N(C)C(=O)N(C)C2=O)c2ccccc21 | > 11 µM (inactive) |
| COc1cccc(NC(=O)C(=O)c2cn(CC(=O)N3CCOCC3)c3ccccc23)c1 | > 11 µM (inactive) |
| Cc1nn(-c2ccccc2)c(N2CCCC2)c1/C=N/NC(=O)c1cc(-c2cccnc2)nc2ccccc12 | > 11 µM (inactive) |
| COc1cccc(CN2C(=O)C3(C(C#N)=C(N)OC4=C3C(=O)CCC4)c3ccccc32)c1 (configuration not stated) | > 11 µM (inactive) |
| Cc1ccc(N=Cc2cc(Br)cc(Cl)c2O)cc1 | > 11 µM (inactive) |
| CCCn1c(N)c(N(CCOC)C(=O)Cc2ccc(S(=O)(=O)N3CCOCC3)s2)c(=O)[nH]c1=O | > 11 µM (inactive) |
| CCC1=NN2C(=N)/C(=C\c3ccc(SCc4ccco4)o3)C(=O)N=C2S1 | > 11 µM (inactive) |
| Cc1[nH]nc(NNC(=O)c2ccccc2)c1[N+](=O)[O-] | > 11 µM (inactive) |
| O=C1CCC/C1=c1\s/c(=C\c2cccnc2)c(=O)n1-c1ccccc1 | > 11 µM (inactive) |
| COC(=O)c1c(C(=O)OC)c2n(c1C)Cc1ccccc1C2 | > 11 µM (inactive) |
| Oc1ccc(/C=C/c2cc(O)cc(O)c2)cc1 | > 11 µM (inactive) |
| O=C(O)c1ccc(N/N=C/C2=C(N3CCOCC3)C(=C\c3ccccc3)/CC2)cc1 | > 11 µM (inactive) |
| O=C(O)c1cc(O)c2c(c1)[C@H]([C@H]1c3cc(C(=O)O)cc(O)c3C(=O)c3c(O[C@@H]4O[C@H](CO)[C@@H](O)[C@H](O)[C@H]4O)cccc31)c1cccc(OC3O[C@H](CO)[C@@H](O)[C@H](O)[C@H]3O)c1C2=O (some centres not stated) | > 11 µM (inactive) |
| CCN(CC)Cc1cc(O)c(CN(CC)CC)cc1O | > 11 µM (inactive) |
| NC(=O)c1c(NC(=O)c2c(F)cccc2F)sc2c1CCN(Cc1ccccc1)C2 | > 11 µM (inactive) |
| COc1cc(NCCCC(C)N)c2ncccc2c1 (configuration not stated) | > 11 µM (inactive) |
| CCOC(=O)C1Nc2ccc(C)cc2C2C=CCC12 (configuration not stated) | > 11 µM (inactive) |
| COc1ccc(/C=C2\SC(=S)N(CCCC(=O)NC3CCCC3)C2=O)cc1OC | > 11 µM (inactive) |
| O=C(O)c1cc(-c2ccc(/C=C3\NC(=O)N(c4ccc(Cl)cc4)C3=O)o2)ccc1Cl | > 11 µM (inactive) |
| CCCCC1=CC2=CC(=O)C(C)(OC(=O)c3cccs3)C(=O)C2=CO1 (configuration not stated) | > 11 µM (inactive) |
| COc1cccc(N2C(=O)NC(=O)/C(=C/c3ccc4c(c3)Cc3ccccc3-4)C2=O)c1 | > 11 µM (inactive) |
| COc1ccccc1NC(=O)c1sc2nc(Cc3ccccc3)cc(C(F)(F)F)c2c1N | > 11 µM (inactive) |
| O=c1oc2ccc(Cl)cc2nc1/C=C(\O)c1ccco1 | > 11 µM (inactive) |

| Compound | EC50 |
| --- | --- |
| CN1Cc2c(c(C#N)c(N)n(C)c2=S)CC1(C)C | > 11 µM (inactive) |
| Cc1cc(/C=C2\C(=O)NC(=O)N(c3ccc(F)cc3)C2=O)c(C)n1-c1cccc(C(=O)O)c1 | > 11 µM (inactive) |
| CCN(CC)c1ccc(N=Cc2c(O)n(-c3cc(OC)ccc3OC)c(=O)[nH]c2=O)cc1 | > 11 µM (inactive) |
| Oc1ccc(O)c(-c2cnns2)c1 | > 11 µM (inactive) |
| CCOc1cc(C(c2c(C)[nH][nH]c2=O)c2c(C)[nH][nH]c2=O)cc([N+](=O)[O-])c1O | > 11 µM (inactive) |
| CCCCc1cn([C@@H](CCCCN)C(=O)N2CCNCC2)nn1 | > 11 µM (inactive) |
| Cc1cccc(N(C)S(=O)(=O)c2nnc(NC(=O)c3ccco3)s2)c1 | > 11 µM (inactive) |
| C=CCSc1nnc(N2C(=O)C(O)=C(C(=O)c3ccco3)C2c2ccc(F)cc2)s1 (configuration not stated) | > 11 µM (inactive) |
| Cc1cc(/C=N/NC(=O)c2cccc(N(C)C)c2)c(C)n1-c1cc(C(=O)O)cc(C(=O)O)c1 | > 11 µM (inactive) |
| Nc1c(C(=O)N/N=C/c2cccnc2)oc2nc(-c3ccccc3)cc(-c3ccco3)c12 | > 11 µM (inactive) |
| Cc1n[nH]c(C)c1S(=O)(=O)N1CCCC(C(=O)Nc2ccc(Br)cc2)C1 (configuration not stated) | > 11 µM (inactive) |
| Cc1cc(C)cc(N2C(=O)NC(=O)/C(=C\c3cc(C)n(C)c3C)C2=O)c1 | > 11 µM (inactive) |
| COC(=O)c1ccc(C2Nc3ccc(/C(C)=N/NC(=O)C(OC)c4ccccc4)cc3C3C=CCC32)cc1 (configuration not stated) | > 11 µM (inactive) |
| Cc1ccccc1Nc1nc(Cl)c(C=O)s1 | > 11 µM (inactive) |
| CSc1nc(=S)c2[nH]c(=S)[nH]c2[nH]1 | > 11 µM (inactive) |
| Cc1ccc(CN2C(=O)N/C(=C\c3cccn3-c3cccc(C(=O)O)c3)C2=O)cc1 | > 11 µM (inactive) |
| CCN(CC)S(=O)(=O)c1ccc(N=Cc2c(C)c(C#N)c(=O)n(C)c2O)cc1 | > 11 µM (inactive) |
| CCOC(=O)C1Nc2ccc(C(=O)O)cc2C2C=CCC12 (configuration not stated) | > 11 µM (inactive) |
| Cc1c(O)ccc(-c2n[nH]c(C(=O)O)c2-c2nc3ccccc3s2)c1O | > 11 µM (inactive) |
| N=C1c2ccccc2CN1NC(=O)CC12CC3CC(CC(C3)C1)C2 | > 11 µM (inactive) |
| CC1(C)CC(=O)C2=C(C1)OC(N)=C(C#N)C21C(=O)N2CCCc3cccc1c32 (configuration not stated) | > 11 µM (inactive) |
| O=C(O)c1cccc(-n2cccc2C=C2C(=O)c3ccccc3C2=O)c1 | > 11 µM (inactive) |
| CCNC(=O)c1cc2c(=O)n3cccc(C)c3nc2n(Cc2ccc(C)cc2)c1=N | > 11 µM (inactive) |

| Compound | EC50 |
| --- | --- |
| N#Cc1c(NC(=O)/C=C/C(=O)O)sc2c1CCN(Cc1ccccc1)C2 | > 11 µM (inactive) |
| Cc1cc(=O)n2[nH]c(N)c(N=Nc3ccccc3)c2n1 | > 11 µM (inactive) |
| Cc1ccc(S(=O)(=O)Nc2ccccc2F)cc1C(=O)NNC(=O)c1ccccc1O | > 11 µM (inactive) |
| CC(C)(C)c1ccc(C(=O)Nc2cccc3ncccc23)cc1 | > 11 µM (inactive) |
| C=CCOn1c(=O)c(-c2cc3ccccc3o2)[n+]([O-])c2ccccc21 | > 11 µM (inactive) |
| COc1ccc(OC)c(C2C(C(=O)c3ccco3)=C(O)C(=O)N2CCN2CCOCC2)c1 (configuration not stated) | > 11 µM (inactive) |
| Cn1c(=O)cc2c3c(c(N4CCCCC4)ccc31)C(=O)c1ccccc1-2 | > 11 µM (inactive) |
| Cc1ccc(N=Nc2c(O)ccc3n[nH]nc23)cc1 | > 11 µM (inactive) |
| Cc1ccccc1C1=N/C(=C/c2cccs2)C(=O)O1 | > 11 µM (inactive) |
| CN1CCc2c(sc3c2C(=O)NC(c2ccccn2)N3)C1 (configuration not stated) | > 11 µM (inactive) |
| CN1C=C/C(=C\c2cc[n+](C)c3ccccc23)c2ccccc21 | > 11 µM (inactive) |
| NS(=O)(=O)c1cc(C(=O)NC2CCSc3ccccc32)ccc1Cl (configuration not stated) | > 11 µM (inactive) |
| COc1ccccc1N1C(=O)C(Cl)=C(Nc2ccccc2O)C1=O | > 11 µM (inactive) |
| O=c1c(O)cccc2cc(O)c(O)c(O)c12 | > 11 µM (inactive) |
| O=C(O)c1[nH]c2ccccc2c1C(c1cc(Cl)cc([N+](=O)[O-])c1O)c1c(C(=O)O)[nH]c2ccccc12 | > 11 µM (inactive) |
| C=CCOc1cccc(C2C(C(=O)c3ccc(C)o3)=C(O)C(=O)N2c2nnc(C)s2)c1 (configuration not stated) | > 11 µM (inactive) |
| Cn1c(=O)c2[nH]c(N/N=C(/C#N)C(N)=O)nc2n(C)c1=O | > 11 µM (inactive) |
| CC1(C)CC(=O)C2=C(C1)OC(N)=C(C#N)C2c1ccccc1OC(=O)N1CCOCC1 (configuration not stated) | > 11 µM (inactive) |
| N#CCC(N)=C(C#N)C#N | > 11 µM (inactive) |
| Cc1ccc(/C=N/Nc2ncnc3nc[nH]c23)cc1 | > 11 µM (inactive) |
| CCCCOC(=O)Cn1c2ccc(OC)cc2c2nc3ccccc3nc21 | > 11 µM (inactive) |
| CCCC1Nc2ccc(C(=O)O)cc2C2C=CCC12 (configuration not stated) | > 11 µM (inactive) |
| CC1=N/C(=C/c2ccco2)C(=O)O1 | > 11 µM (inactive) |
